The text below walks through data of ChEMBL document CHEMBL5120785, “Rational design, synthesis, antiproliferative activity against MCF-7, MDA-MB-231 cells, estrogen receptors binding affinity, and computational study of indenopyrimidine-2,5-dione analogs for the treatment of breast cancer” (Bioorg Med Chem Lett, 2022).

The structures appear in SMILES notation.

Assay [1] concerns Chorioallantoic membrane. Description: Anti-angiogenesis activity in chicken embryo chorioallantonic membrane measured after 2 hrs by CAM assay. In kind it is functional. Particulars: Gallus gallus.
Assay [2] deals with MCF7. Description: cells. Particulars: Homo sapiens, MCF7, 24 h.
Description: Antiproliferative activity against human MCF7 cells assessed as cell viability after 24 hrs by MTT assay
Assay [3] concerns the target Estrogen receptor beta (Homo sapiens, UniProt Q92731).
Description: Binding affinity to human recombinant ERbeta by competitive fluorometric binding assay
Assay [4] concerns the target T1, Estrogen receptor (Homo sapiens, UniProt P03372).
T1 sequence (P03372 whole entry): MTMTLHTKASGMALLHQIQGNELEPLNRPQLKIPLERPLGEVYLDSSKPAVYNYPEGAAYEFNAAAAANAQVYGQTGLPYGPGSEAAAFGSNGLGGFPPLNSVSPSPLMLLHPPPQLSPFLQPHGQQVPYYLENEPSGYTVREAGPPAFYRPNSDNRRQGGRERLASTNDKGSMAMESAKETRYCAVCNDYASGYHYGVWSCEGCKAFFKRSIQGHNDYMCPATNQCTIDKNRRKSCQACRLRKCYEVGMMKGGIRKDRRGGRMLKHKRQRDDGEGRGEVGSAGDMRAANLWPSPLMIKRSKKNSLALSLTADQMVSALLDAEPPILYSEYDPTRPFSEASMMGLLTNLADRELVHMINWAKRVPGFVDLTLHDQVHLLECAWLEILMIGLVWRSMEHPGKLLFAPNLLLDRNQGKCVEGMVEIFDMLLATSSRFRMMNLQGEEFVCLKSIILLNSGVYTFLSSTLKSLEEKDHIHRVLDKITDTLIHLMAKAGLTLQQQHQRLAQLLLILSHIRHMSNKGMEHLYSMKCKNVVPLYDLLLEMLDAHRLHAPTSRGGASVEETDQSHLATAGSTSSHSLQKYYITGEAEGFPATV
In words: Binding affinity to human recombinant ERalpha by competitive fluorometric binding assay.

Assay [5] concerns MDA-MB-231. In words: cells. The conditions noted are these: Homo sapiens, MDA-MB-231, 24 h.
Description: Antiproliferative activity against human MDA-MB-231 cells assessed as cell viability after 24 hrs by MTT assay
Assay [6] concerns HEK293. In words: Cytotoxicity against human HEK293 cells assessed as cell viability after 24 hrs by MTT assay. It is filed as functional, cell-based. The conditions noted are these: HEK293, 24 h.
Assay [7] in a line: Selectivity index, ratio of IC50 for human recombinant ERbeta to human recombinant ERalpha.

Sequence of Estrogen receptor beta (Q92731 whole entry): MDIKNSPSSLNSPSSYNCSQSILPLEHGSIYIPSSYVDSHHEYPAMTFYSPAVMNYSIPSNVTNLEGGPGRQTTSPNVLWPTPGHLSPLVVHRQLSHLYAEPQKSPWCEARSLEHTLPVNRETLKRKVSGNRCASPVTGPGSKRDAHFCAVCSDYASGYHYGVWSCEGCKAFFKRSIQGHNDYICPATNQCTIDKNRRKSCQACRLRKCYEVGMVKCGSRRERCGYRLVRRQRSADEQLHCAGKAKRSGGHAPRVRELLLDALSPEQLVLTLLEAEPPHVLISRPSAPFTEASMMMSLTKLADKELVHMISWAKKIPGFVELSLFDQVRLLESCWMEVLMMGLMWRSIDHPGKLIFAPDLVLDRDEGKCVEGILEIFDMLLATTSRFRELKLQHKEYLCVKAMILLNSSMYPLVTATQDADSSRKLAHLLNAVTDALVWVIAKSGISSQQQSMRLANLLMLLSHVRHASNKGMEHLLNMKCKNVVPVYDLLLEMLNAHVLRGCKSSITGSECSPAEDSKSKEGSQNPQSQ

Consider `CN(Cc1cnc2nc(N)nc(N)c2n1)c1ccc(C(=O)N[C@@H](CCC(=O)O)C(=O)O)cc1` [METHOTREXATE], for which the IC50 (usually the concentration needed to halve the response being measured) in assay [1] turned out to be 3.65 µM.

`CN1CCN(CCOc2ccc(C3NC(=O)N(C)C4=C3C(=O)c3ccccc34)cc2)CC1` (stereo not given): the IC50 was 14.4 µM in assay [2], > 10 µM in assay [3], 0.49 µM in assay [4] and > 50 µM in assay [5].

For `CN1C(=O)N(CC(F)(F)F)C(c2ccc(OCCN3CCN(CC(F)(F)F)CC3)cc2)C2=C1c1ccccc1C2=O` (stereo not given), the IC50 in assay [2] was 5.17 µM; in assay [3] it was > 10 µM; in assay [4], 0.93 µM; in assay [5], > 50 µM; in assay [1] it was 6.94 µM.

Take `CN1C(=O)NC(c2ccc(O)cc2)C2=C1c1ccccc1C2=O` (stereo not given): the IC50 is > 10 µM in assay [3] and 36.1 µM in assay [4].

`CN(C)CCOc1ccc(C2NC(=O)N(C)C3=C2C(=O)c2ccccc23)cc1` (stereo not given): the IC50 was 11.3 µM in assay [2], > 10 µM in assay [3], 3.17 µM in assay [4] and 21.1 µM in assay [5].

In the case of `CN1C(=O)NC(c2ccc(C(F)(F)F)cc2)C2=C1c1ccccc1C2=O` (stereo not given), the IC50 in assay [3] was > 10 µM; in assay [4], 29.6 µM.

For `CN(CCOc1ccc(C2NC(=O)N(C)C3=C2C(=O)c2ccccc23)cc1)CCC(Oc1ccc(C(F)(F)F)cc1)c1ccccc1` (stereo not given), the IC50 was 11.2 µM in assay [2], > 10 µM in assay [3], 0.81 µM in assay [4] and > 50 µM in assay [5].

In the case of `CN1C(=O)N(N(C)CCC(Oc2ccc(C(F)(F)F)cc2)c2ccccc2)C(c2ccc(C(F)(F)F)cc2)C2=C1c1ccccc1C2=O` (stereo not given), the IC50 in assay [2] was 6.98 µM; in assay [3] it was > 10 µM; in assay [4], 1.33 µM; in assay [5], > 50 µM.

In the case of `CN1C(=O)N(CCN2CCNCC2)C(c2ccc(C(F)(F)F)cc2)C2=C1c1ccccc1C2=O` (stereo not given), the IC50 was 0.89 µM in assay [2]; > 10 µM in assay [3]; 0.021 µM in assay [4]; > 50 µM in assay [5]; 19.1 µM in assay [1]; 44.3 µM in assay [6].

Take `CN1C(=O)NC(c2ccc(OCCN(CCO)CCO)cc2)C2=C1c1ccccc1C2=O` (stereo not given): the IC50 was 0.07 µM in assay [2]; 0.53 µM in assay [3]; 0.0071 µM in assay [4]; > 50 µM in assay [5]; 3.52 µM in assay [1]; > 50 µM in assay [6].

For `CN1C(=O)NC(c2ccc(OCCN3CCN(CC(F)(F)F)CC3)cc2)C2=C1c1ccccc1C2=O` (stereo not given), the IC50 in assay [2] was 6.25 µM; in assay [3], > 10 µM; in assay [4], 1.29 µM; in assay [5], > 50 µM.

For the compound `CN1CCN(CCOc2ccc(C3C4=C(c5ccccc5C4=O)N(C)C(=O)N3CC(F)(F)F)cc2)CC1` (stereo not given), the IC50 in assay [2] is 16.1 µM; in assay [3], > 10 µM; in assay [4] it was 3.01 µM; in assay [5] it was 28.4 µM.

As to `CN(C)CCN1C(=O)N(C)C2=C(C(=O)c3ccccc32)C1c1ccc(C(F)(F)F)cc1` (stereo not given), the 50% inhibitory concentration (IC50) was 13.2 µM in assay [2], > 10 µM in assay [3], 2.09 µM in assay [4] and > 50 µM in assay [5].

For `CN1C(=O)N(CCN(CCO)CCO)C(c2ccc(C(F)(F)F)cc2)C2=C1c1ccccc1C2=O` (stereo not given), the 50% inhibitory concentration (IC50) in assay [2] is 0.081 µM; in assay [3], 0.31 µM; in assay [4], 0.004 µM; in assay [5], > 50 µM; in assay [1] it was 0.86 µM; in assay [6], > 50 µM.

Take `CN1CCN(CCN2C(=O)N(C)C3=C(C(=O)c4ccccc43)C2c2ccc(C(F)(F)F)cc2)CC1` (stereo not given): the IC50 was 1.48 µM in assay [2]; > 10 µM in assay [3]; 0.072 µM in assay [4]; > 50 µM in assay [5]; 38.5 µM in assay [6].

Take `CN(C)CCOc1ccc(C2C3=C(c4ccccc4C3=O)N(C)C(=O)N2CC(F)(F)F)cc1` (stereo not given): the half-maximal inhibitory concentration (IC50) in assay [2] was 14.3 µM; in assay [3] it was > 10 µM; in assay [4], 7.55 µM; in assay [5], 31.6 µM.

In the case of `CC/C(=C(\c1ccccc1)c1ccc(OCCN(C)C)cc1)c1ccccc1` [TAMOXIFEN], the values for the half-maximal inhibitory concentration (IC50) in assay [2], in assay [5] and in assay [6] were 8.53 µM, 14.9 µM and 26.3 µM, respectively. Also, the Ratio IC50 in assay [7] was determined as 0.054.

In the case of `CN1C(=O)NC(c2ccc(OCCN3CCNCC3)cc2)C2=C1c1ccccc1C2=O` (stereo not given), the IC50 in assay [2] was 1.02 µM; in assay [3] it was > 10 µM; in assay [4] it was 0.44 µM; in assay [5], > 50 µM; in assay [1], 6.7 µM; in assay [6], 37.5 µM.
